In ChEMBL document CHEMBL1145608, “Selective androgen receptor modulators based on a series of 7H-[1,4]oxazino[3,2-g]quinolin-7-ones with improved in vivo activity” (Bioorg Med Chem Lett, 2008):
Calls of active or inactive are those of the source. The calls are words filed in the database; no cut-off is given here.

Tests used:
[1] = molecular target: T1, Androgen receptor (Homo sapiens, UniProt P10275)
T1 sequence (P10275 whole entry): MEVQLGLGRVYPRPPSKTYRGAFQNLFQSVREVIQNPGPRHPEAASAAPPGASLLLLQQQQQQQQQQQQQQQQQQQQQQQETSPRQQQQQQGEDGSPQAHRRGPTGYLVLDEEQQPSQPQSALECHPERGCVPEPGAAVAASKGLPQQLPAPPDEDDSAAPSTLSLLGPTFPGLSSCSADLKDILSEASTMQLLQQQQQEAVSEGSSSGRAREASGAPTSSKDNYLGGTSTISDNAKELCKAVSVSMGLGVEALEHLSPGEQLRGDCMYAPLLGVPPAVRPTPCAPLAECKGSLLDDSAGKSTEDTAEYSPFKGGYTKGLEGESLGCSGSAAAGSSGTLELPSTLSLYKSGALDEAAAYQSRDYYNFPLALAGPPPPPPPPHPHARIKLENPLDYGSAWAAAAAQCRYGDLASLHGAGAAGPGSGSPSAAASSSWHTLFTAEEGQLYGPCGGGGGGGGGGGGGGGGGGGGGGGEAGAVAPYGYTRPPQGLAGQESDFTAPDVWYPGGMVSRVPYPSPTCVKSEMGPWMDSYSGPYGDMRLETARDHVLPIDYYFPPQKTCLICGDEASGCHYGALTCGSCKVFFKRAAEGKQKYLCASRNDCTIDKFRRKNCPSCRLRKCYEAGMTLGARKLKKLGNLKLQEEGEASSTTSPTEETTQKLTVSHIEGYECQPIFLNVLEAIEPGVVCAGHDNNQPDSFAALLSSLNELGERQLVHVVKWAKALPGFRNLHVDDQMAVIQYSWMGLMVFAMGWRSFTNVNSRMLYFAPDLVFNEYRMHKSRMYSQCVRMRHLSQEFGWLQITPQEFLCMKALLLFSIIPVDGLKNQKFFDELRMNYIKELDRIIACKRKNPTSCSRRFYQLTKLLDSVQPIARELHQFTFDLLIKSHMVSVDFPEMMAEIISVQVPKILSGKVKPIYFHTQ
Description: Agonist activity at human androgen receptor in CV1 cells by transcriptional activation assay

[2] = molecular target: T1, Androgen receptor; assay: biochemical
Description: Displacement of [3H]DHT from human Androgen receptor in human MDA-MB-453 cells

[3] = molecular target: T1, Androgen receptor; remark: listed apart in the source
Description: Antagonist activity at human androgen receptor in CV1 cells by transcriptional activation assay

[4] = Metabolic stability in rat liver microsome at 5 uM; assay type: ADME; conditions: liver microsomes
[5] = test system: Rattus norvegicus; assay: Effect on Levator ani muscle weight maintenance in orchidectomized Sprague-Dawley rat at 10 mg/kg, po; assay type: functional, organism-based; parameters: dose 10 mg/kg
[6] = test system: Rattus norvegicus; assay: Effect on Levator ani muscle weight maintenance in orchidectomized Sprague-Dawley rat at 3 mg/kg, po; assay type: functional, organism-based; parameters: dose 3 mg/kg

SMILES: Cc1cccc([C@@H]2COc3cc4[nH]c(=O)cc(C(F)(F)F)c4cc3N2CC(F)(F)F)c1
- EC50 [1]: 19 nM
- Ki [2]: 1.1 nM

SMILES: O=c1cc(C(F)(F)F)c2cc3c(cc2[nH]1)OCC(C(F)(F)F)N3CC(F)(F)F (racemic)
- EC50 [1]: 5.9 nM
- Ki [2]: 8.3 nM

SMILES: N#CCC1COc2cc3[nH]c(=O)cc(C(F)(F)F)c3cc2N1CC(F)(F)F (racemic)
- EC50 [1]: 30 nM
- Ki [2]: 18 nM

SMILES: O=c1cc(C(F)(F)F)c2cc3c(cc2[nH]1)OC[C@H](c1ccccc1)N3CC(F)(F)F
- IC50 [3]: 340 nM
- Ki [2]: 150 nM

SMILES: O=c1cc(C(F)(F)F)c2cc3c(cc2[nH]1)OC[C@@H](C(F)(F)F)N3CC(F)(F)F
- IC50 [3]: 34 nM
- EC50 [1]: 42 nM
- Ki [2]: 281 nM

SMILES: COC[C@@H]1COc2cc3[nH]c(=O)cc(C(F)(F)F)c3cc2N1CC(F)(F)F
- EC50 [1]: 2 nM
- Ki [2]: 9.4 nM

SMILES: O=c1cc(C(F)(F)F)c2cc3c(cc2[nH]1)OCC(C(F)F)N3CC(F)(F)F (racemic)
- EC50 [1]: 1.3 nM
- Ki [2]: 6.6 nM

SMILES: O=c1cc(C(F)(F)F)c2cc3c(cc2[nH]1)OC[C@H](CF)N3CC(F)(F)F
- half-life at 5 µM [4]: 0.567 h
- EC50 [1]: 3.8 nM
- Ki [2]: 2.6 nM
- Activity [5]: Active

SMILES: COC[C@H]1COc2cc3[nH]c(=O)cc(C(F)(F)F)c3cc2N1CC(F)(F)F
- IC50 [3]: 17 nM
- EC50 [1]: 77 nM
- Ki [2]: 109 nM

SMILES: O=c1cc(C(F)(F)F)c2cc3c(cc2[nH]1)OC[C@@H](CC(F)(F)F)N3CC(F)(F)F
- EC50 [1]: 23 nM
- Ki [2]: 18 nM

SMILES: Cc1ccc([C@@H]2COc3cc4[nH]c(=O)cc(C(F)(F)F)c4cc3N2CC(F)(F)F)cc1
- EC50 [1]: 36 nM

SMILES: O=c1cc(C(F)(F)F)c2cc3c(cc2[nH]1)OC[C@H](CO)N3CC(F)(F)F
- IC50 [3]: 165 nM
- EC50 [1]: 6.6 nM
- Ki [2]: 22 nM

SMILES: O=c1cc(C(F)(F)F)c2cc3c(cc2[nH]1)OC[C@@H](CF)N3CC(F)(F)F
- IC50 [3]: 199 nM
- EC50 [1]: 35 nM
- Ki [2]: 32 nM

SMILES: CSCC1COc2cc3[nH]c(=O)cc(C(F)(F)F)c3cc2N1CC(F)(F)F (racemic)
- IC50 [3]: 25 nM
- EC50 [1]: 28 nM

SMILES: O=c1cc(C(F)(F)F)c2cc3c(cc2[nH]1)OC[C@H](C(F)(F)F)N3CC(F)(F)F
- half-life at 5 µM [4]: 1.67 h
- EC50 [1]: 2 nM
- Ki [2]: 5.9 nM
- Activity [6]: Active

SMILES: O=c1cc(C(F)(F)F)c2cc3c(cc2[nH]1)OC[C@@H](c1ccccc1)N3CC(F)(F)F
- EC50 [1]: 5.3 nM
- Ki [2]: 1.3 nM

SMILES: CCOCC1COc2cc3[nH]c(=O)cc(C(F)(F)F)c3cc2N1CC(F)(F)F (racemic)
- EC50 [1]: 3.2 nM

SMILES: O=c1cc(C(F)(F)F)c2cc3c(cc2[nH]1)OC[C@@H](CO)N3CC(F)(F)F
- IC50 [3]: 60 nM
- EC50 [1]: 11 nM
- Ki [2]: 15 nM

SMILES: CSCC[C@@H]1COc2cc3[nH]c(=O)cc(C(F)(F)F)c3cc2N1CC(F)(F)F
- EC50 [1]: 23 nM
- Ki [2]: 2.4 nM

SMILES: Cc1ccc([C@H]2COc3cc4[nH]c(=O)cc(C(F)(F)F)c4cc3N2CC(F)(F)F)cc1
- IC50 [3]: 44 nM

SMILES: Cc1cccc([C@H]2COc3cc4[nH]c(=O)cc(C(F)(F)F)c4cc3N2CC(F)(F)F)c1
- IC50 [3]: 574 nM
- Ki [2]: 180 nM

SMILES: O=c1cc(C(F)(F)F)c2cc3c(cc2[nH]1)OC[C@@H](Cc1ccccc1)N3CC(F)(F)F
- IC50 [3]: 51 nM

SMILES: CCCOCC1COc2cc3[nH]c(=O)cc(C(F)(F)F)c3cc2N1CC(F)(F)F (racemic)
- EC50 [1]: 4.2 nM
